Measurements taken from the supplement of paper PMC10307832.

Assays:
Experiment in all cases: relative viability (nuclei count vs DMSO), 5 days (fraction); higher = more cells survive
R406 + Trametinib = compound: COc1cc(Nc2ncc(F)c(Nc3ccc4c(n3)NC(=O)C(C)(C)O4)n2)cc(OC)c1OC [R406] + CC(=O)Nc1cccc(-n2c(=O)n(C3CC3)c(=O)c3c(Nc4ccc(I)cc4F)n(C)c(=O)c(C)c32)c1 [Trametinib] (partner 0.02 µM)
In short: (§1)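 One day after seeding in 1536-well plates, lung cancer cell lines were dosed by pin tool. Dosing was either single-drug or a fixed anchor-drug dose plus five library-drug doses (not always all listed) in √10 steps. After 5 days, nuclei were stained in one fix-and-stain step and counted on 4× images, and relative viability is the nuclei count of treated wells over that of vehicle wells, given as the median of duplicate plates.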

R406 + AZD7762 = compound: COc1cc(Nc2ncc(F)c(Nc3ccc4c(n3)NC(=O)C(C)(C)O4)n2)cc(OC)c1OC [R406] + NC(=O)Nc1cc(-c2cccc(F)c2)sc1C(=O)N[C@H]1CCCNC1 [AZD7762] (partner 0.2 µM)
In short: as §1

Daporinad + Phenformin = compound: O=C(/C=C/c1cccnc1)NCCCCC1CCN(C(=O)c2ccccc2)CC1 [Daporinad] + N=C(N)NC(=N)NCCc1ccccc1 [Phenformin] (partner 250 µM)
In short: as §1

R406 + Pictilisib = compound: COc1cc(Nc2ncc(F)c(Nc3ccc4c(n3)NC(=O)C(C)(C)O4)n2)cc(OC)c1OC [R406] + CS(=O)(=O)N1CCN(Cc2cc3nc(-c4cccc5[nH]ncc45)nc(N4CCOCC4)c3s2)CC1 [Pictilisib] (partner 1 µM)
In short: as §1

Cell Line | relative viability (R406 + Trametinib; first compound 0.08 µM) | relative viability (R406 + Trametinib; first compound 0.253 µM) | relative viability (R406 + Trametinib; first compound 0.8 µM) | relative viability (R406 + Trametinib; first compound 2.53 µM) | relative viability (R406 + Trametinib; first compound 8 µM) | relative viability (R406 + AZD7762; first compound 0.08 µM) | relative viability (R406 + AZD7762; first compound 0.253 µM) | relative viability (R406 + AZD7762; first compound 0.8 µM) | relative viability (R406 + AZD7762; first compound 2.53 µM) | relative viability (R406 + AZD7762; first compound 8 µM) | relative viability (Daporinad + Phenformin; first compound 0.0005 µM) | relative viability (Daporinad + Phenformin; first compound 0.001581 µM) | relative viability (Daporinad + Phenformin; first compound 0.005 µM) | relative viability (Daporinad + Phenformin; first compound 0.01581 µM) | relative viability (R406 + Pictilisib; first compound 0.08 µM) | relative viability (R406 + Pictilisib; first compound 0.253 µM) | relative viability (R406 + Pictilisib; first compound 0.8 µM) | relative viability (R406 + Pictilisib; first compound 2.53 µM) | relative viability (R406 + Pictilisib; first compound 8 µM)
NCI-H647 | 0.534 | 0.359 | 0.6 | 0.239 | 0.0884 | 0.373 | 0.419 | 0.467 | 0.413 | 0.29 | 0.534 | 0.65 | 0.641 | 0.643 | 0.437 | 0.402 | 0.418 | 0.276 | 0.147
NCI-H838 | 0.526 | 0.598 | 0.684 | 0.256 | 0.115 | 0.915 | 1.02 | 1.04 | 0.853 | 0.741 | 0.551 | 0.799 | 0.542 | 0.415 | 0.412 | 0.689 | 0.407 | 0.199 | 0.178
H3255 | 0.549 | 0.693 | 0.563 | 0.577 | 0.487 | 0.923 | 0.983 | 0.823 | 0.774 | 0.747 | 0.355 | 0.341 | 0.379 | 0.424 | 0.48 | 0.533 | 0.495 | 0.347 | 0.331
NCI-H2170 | 0.923 | 0.99 | 1.02 | 0.647 | 0.842 | 0.81 | 0.766 | 0.948 | 0.596 | 0.708 | 0.379 | 0.424 | 0.415 | 0.458 | 0.307 | 0.269 | 0.302 | 0.194 | 0.24
NCI-H1437 | 0.547 | 0.657 | 0.637 | 0.487 | 0.295 | 1.04 | 1.19 | 1.13 | 1.05 | 1.05 | 0.349 | 0.325 | 0.349 | 0.362 | 0.368 | 0.535 | 0.367 | 0.236 | 0.231
NCI-H358 | 0.131 | 0.144 | 0.14 | 0.0877 | 0.103 | 0.502 | 0.472 | 0.509 | 0.272 | 0.217 | 0.297 | 0.404 | 0.445 | 0.303 | 0.336 | 0.323 | 0.319 | 0.272 | 0.228
LU99A | 0.532 | 0.522 | 0.56 | 0.458 | 0.358 | 0.317 | 0.358 | 0.39 | 0.413 | 0.283 | 0.833 | 0.981 | 0.946 | 0.93 | 0.368 | 0.296 | 0.357 |  | 0.211
HCC-827 | 0.564 | 0.578 | 0.517 | 0.399 | 0.383 | 0.336 | 0.239 | 0.234 | 0.176 | 0.134 | 0.442 | 0.478 | 0.421 | 0.461 | 0.944 | 0.735 | 1.11 | 0.687 | 0.862
LK-2 | 0.675 | 1 | 0.718 | 0.706 | 0.447 | 0.373 | 0.407 | 0.333 | 0.354 | 0.104 | 0.651 | 0.305 | 0.314 | 0.159 | 0.462 | 0.637 | 0.427 | 0.462 | 0.304
HCC-366 | 0.342 | 0.411 | 0.42 | 0.234 | 0.0517 | 0.269 | 0.294 | 0.368 | 0.267 | 0.243 | 0.565 | 0.584 | 0.633 | 0.606 | 0.128 | 0.163 | 0.141 | 0.113 | 0.122
BEN | 0.974 | 0.992 | 1.24 | 1.17 | 0.897 | 0.816 | 0.814 | 0.796 | 0.828 | 0.523 | 0.289 | 0.237 | 0.261 | 0.292 | 0.581 | 0.642 | 0.57 | 0.623 | 0.447
NCI-H23 | 0.288 | 0.376 | 0.444 | 0.399 | 0.128 | 0.215 | 0.265 | 0.283 | 0.25 | 0.269 | 0.726 | 0.773 | 0.829 | 0.399 | 0.521 | 0.543 | 0.695 | 0.165 | 0.328
NCI-H1395 | 0.979 | 1.02 | 0.998 | 0.687 | 0.568 | 0.427 | 0.354 | 0.351 | 0.417 | 0.36 | 0.431 | 0.421 | 0.471 | 0.482 | 0.643 | 0.668 | 0.678 | 0.581 | 0.378
201T | 0.696 | 0.72 | 0.726 | 0.674 | 0.679 | 0.615 | 0.685 | 0.664 | 0.762 | 0.836 | 0.423 | 0.456 | 0.499 | 0.463 | 0.677 | 0.725 | 0.669 | 0.591 | 0.57
NCI-H1793 | 0.448 | 0.537 | 0.411 | 0.422 | 0.16 | 0.471 | 0.368 | 0.415 | 0.283 | 0.413 | 0.322 | 0.395 | 0.403 | 0.564 | 0.367 | 0.354 | 0.492 | 0.168 | 0.23
NCI-H727 | 0.416 | 0.344 | 0.453 | 0.406 | 0.372 | 0.675 | 0.666 | 0.535 | 0.681 | 0.747 | 0.529 | 0.657 | 0.67 | 0.522 | 0.386 | 0.508 | 0.354 | 0.175 | 0.252
HCC-15 | 0.392 | 0.385 | 0.406 | 0.415 | 0.331 | 1.35 | 1.33 | 1.38 | 1.19 | 0.751 | 0.421 | 0.617 | 0.567 | 0.586 | 0.702 | 0.896 | 0.827 |  | 0.693
